Data reported in patent US20240424010A1, “NICOTINAMIDE RIBOSIDE TRIOLEATES CHLORIDE, COMPOSITIONS CONTAINING THIS COMPOUND, AND METHODS OF MAKING AND USING THIS COMPOUND” (SOCIETE DES PRODUITS NESTLE S.A., priority 2021, published 2024).

Legend:
[1] = Stability of NRTOCl and NRCl in DI water at 35° C. for 28 days (released nicotinamide by HPLC); type: physicochemical; details: DI water, 1000 ppm, 28 days
Description: Although NRTOCl is a quaternary ammonium salt, it was not dissolved in water due to the existence of three groups of oleate fatty ester in its structure. Therefore, for the stability study of NRTOCl, this compound was dispersed in DI water using 1% ethanol as a cosolvent. For this purpose, 15 mg of NRTOCl was dissolved in 0.15 ml of ethanol (1%) and then 14.85 ml of DI water was added to the mixture and gently shaken. […] Although the average size of NRTOCl in this sample was 192 nm, the images of TEM disclosed smaller particles with around 50 nm and oval and spherical shapes with aspect ratio close to unity (FIGS. 10A-10C). In the nanoparticles, the NRTOCl structures are stacked on top of each other layer-by-layer. The highly positive charge of NRTO makes the nanoparticles stable in the aqueous phase. After dispersion of NRTOCl in DI water, NRCl was dissolved in DI water, and the stability of these samples were studied at 35° C. for 28 days (FIG. 11). The concentration of each sample was 1000 ppm. As during the hydrolysis reaction of NRTO and NR, both of these compounds released nicotinamide (FIG. 12), and by measuring the released amount of nicotinamide in each sample with HPLC, the remaining amounts of NRTO and NR in each sample were calculated. During this study, any release of NR from NRTO sample was not detected. It signifies that the heavy ester groups in NRTO sample are not hydrolyzed during the time of stability study. Because this study was performed in DI water and the conditions were mild, the NRTO was hydrolyzed from its N-glycoside bond.

[2] = Hydrolysis stability of NRTOCl and NRCl oil-in-water emulsions and NRCl in water at 35° C. for 26 days; type: physicochemical
Description: The emulsion was prepared using 480 mg of oil stock containing 15 wt. % NRTOCl in canola oil and an aqueous phase (14.52 g) of Na-caseinate (2 wt. %), KCl (0.3 wt. %), NaCl (0.1 wt. %), CaCl2 (0.2 wt. %) and NaN3 (0.01 wt. %).
The emulsion was-prepared using 480 mg of oil stock containing 15 wt. % NRTOCl in canola oil and 0.025 g of lecithin. The aqueous phase (14.5 g) contained Na-caseinate (2 wt. %), KC (0.3 wt. %), NaCl (0.1 wt. %), CaCl2 (0.2 wt. %) and NaN3 (0.01 wt. %).
The emulsion was-prepared using 480 mg of oil stock containing 15 wt. % NRTOCl in canola oil and an aqueous phase (14.52 g) of polysorbate 80 (Tween 80) (2 wt. %).
The emulsion was prepared using around 480 mg of canola oil in an aqueous phase (14.52 g) of NRCl (19 mg), Na-caseinate (2 wt. %), KCl (0.3 wt. %), NaCl (0.1 wt. %), CaCl2 (0.2 wt. %) and NaN3 (0.01 wt. %).
After each specific time of stability for NRTOCl and NRCl emulsions, 1.5 mL of each emulsion was centrifuged (14,000 rpm) for 20 minutes at room temperature.
Since NRTOCl is a very hydrophobic compound, to evaluate its stability in oil phase, an emulsion system was used to study the stability of NRTOCl as a function of time. For this purpose, a 15% w/w solution of NRTOCl in canola oil was used for making different emulsions with Na-caseinate, Tween 80 and lecithin as the emulsifiers (2 wt. %) at room temperature.
When Na-caseinate was used as an emulsifier, the aqueous phase must be a solution of NaCl (0.1 wt. %), CaCl2 (0.2 wt. %) and KCl (0.3 wt. %) because caseinate anion with minus charge and NRTO with positive charge immediately aggregated in DI water. The total oil phase in these emulsions were 3.2 wt. %, and the concentration of NRTOCl in total volume of each emulsion (15 mL) was 4.4 mM. In the emulsions that used Na-caseinate as an emulsifier, NaN3 (0.01 wt. %) was added to prevent the growth of bacteria. When the NRTOCl emulsion was made by 2 wt. % Na-caseinate, its average size and zeta potential in this emulsion (Cas emulsion) were 1020 nm and −14.4 mV respectively.
After making NRTOCl emulsions, a NRCl in canola oil-in-water emulsion was attempted as a control experiment using 3.2% canola oil. The aqueous phase was a solution of Na-caseinate (2 wt. %), NaCl (0.1 wt. %), CaCl2 (0.2 wt. %), KCl (0.3 wt. %) and NaN3 (0.01 wt. %). The concentration of NRCl in total volume (15 mL) of this emulsion was 4.4 mM. Moreover, 15 mL of NRCl solution in DI water was prepared with 4.4 mM concentration as the other control experiment. After preparing three NRTOCl emulsions and two control experiment samples, hydrolysis stability of each sample was studied at 35° C. for 26 days (FIG. 14). The rate of degradation was measured by determination of the released nicotinamide from each sample. […]

[3] = Hydrolysis stability of NRTOCl emulsions and NRCl in water at room temperature for 42 days; type: physicochemical; details: room temperature, 42 days
Description: After each specific time of stability for NRTOCl and NRCl emulsions, 1.5 mL of each emulsion was centrifuged (14,000 rpm) for 20 minutes at room temperature. […] However, during this time of stability study, 52.0% NR was intact in water at room temperature. […] During this time, these emulsions were stable without visible phase separation. A little increase in the average size of the NRTO droplets occurred in these emulsions, so that in Cas emulsion, the average size increased from 1020 nm to 1281 nm, and in Cas-Lec emulsion, this parameter increased from 1012 nm to 1106 nm.

[4] = system: NAD+ level in mammalian cell; details: cited from earlier work
[5] = Solubility study of NRTBCl in long and medium chain triglycerides and in water at different pH; type: physicochemical
Description: To study the solubility of NRTBCl in long chain triglycerides, we tried to dissolve this compound in olive oil and corn oil. For this purpose, 15 mg of NRTBCl was added to 15 ml of olive oil and vigorously shaked with vortex for 10 minutes at room temperature. […] This procedure was repeated by using corn oil instead of olive oil and the obtained results disclosed that NRTB was insoluble in corn oil. To study the solubility of NRTBCl in medium chain triglycerides, we tried to dissolve this compound in coconut oil. For this purpose, 15 mg of NRTBCl was added to 15 ml of coconut oil and vigorously shaked with vortex for 10 minutes at room temperature. […] To study the solubility of NRTB in water, three aqueous solutions of NRTBCl were prepared with 10000 ppm concentration at pH 5, 7, and 9.

[6] = NRTBCl stability measurement in MQ water at 35° C.; type: physicochemical; details: 6 days, 1000 ppm, preliminary
Description: The stability study of the NRTBCl was performed by dissolving NRTB in MQ water and keeping at 35° C. for 6 days. The concentration of each sample was 1000 ppm. […] The reason for increasing the intensity of the peak at 33 min (flow rate: 0.75 mL/min), is that the byproduct of degradation is nicotinamide (NA), which has the retention time of 33 min (exactly as NRTBCl).

[7] = 15 mg in 15 ml, vortex 10 minutes, room temperature

| Compound | remaining amount after 28 days [1] | solubility in the oil phase of the emulsion [2] | NR hydrolyzed after 42 days [3] | NR intact in water after 42 days ([3]; water) | boost of the level of NAD+ in mammalian cell [4] | solubility (general statement) [5] | solubility in coconut oil [5, 7] | solubility in corn oil [5, 7] | solubility in olive oil [5, 7] | solubility in water at different pH ([5]; 10000 ppm, pH 5, 7, and 9, zeta sizer) | hydrolysis stability in MQ water [6] |
| --- | --- | --- | --- | --- | --- | --- | --- | --- | --- | --- | --- |
| NC(=O)c1ccc[n+]([C@@H]2O[C@H](CO)[C@@H](O)[C@H]2O)c1.[Cl-] [NRCl, Nicotinamide riboside chloride, reference compound] | 0.6% | cannot be dissolved | 48% | 52.0% | up to two fold |  |  |  |  |  |  |
| CCCC(=O)OC[C@H]1O[C@@H]([n+]2cccc(C(N)=O)c2)[C@H](OC(=O)CCC)[C@@H]1OC(=O)CCC.[Cl-] [NRTBCl, nicotinamide riboside tributyrates chloride] |  |  |  |  |  | did not demonstrate good solubility | not dissolved | insoluble | not dissolved | completely be dissolved | easily hydrolyzed |
